Experimental data reported in BigSolDB 2.1.

COc1cc(C(=O)O)cc(OC)c1O
solubility (mole fraction)
Details | 283.15 K | 288.15 K | 293.15 K | 298.15 K | 303.15 K | 308.15 K | 313.15 K | 318.15 K | 323.15 K
in ethanol | 0.0115 | 0.0125 | 0.0145 | 0.0169 | 0.0188 | 0.0217 | 0.0251 | 0.0279 | 0.0316
in ethyl acetate | 0.0007 | 0.00084 | 0.001 | 0.00125 | 0.00149 | 0.0018 | 0.00221 | 0.0026 | 0.00323
in ethylene glycol | 0.00812 | 0.00951 | 0.0113 | 0.0124 | 0.0146 | 0.017 | 0.0203 | 0.0235 | 0.0269
in isopropanol | 0.00401 | 0.00455 | 0.00545 | 0.00627 | 0.00752 | 0.00853 | 0.00971 | 0.0115 | 0.0131
in methanol | 0.0137 | 0.015 | 0.0173 | 0.019 | 0.0209 | 0.0238 | 0.0271 | 0.0298 | 0.0331
in n-butanol | 0.0032 | 0.00375 | 0.00441 | 0.00518 | 0.00624 | 0.00735 | 0.00832 | 0.0098 | 0.0116
in n-hexanol | 0.00241 | 0.00281 | 0.0033 | 0.0042 | 0.0048 | 0.0058 | 0.00702 | 0.00852 | 0.0101
in sec-butanol | 0.00188 | 0.00223 | 0.0029 | 0.00357 | 0.00432 | 0.00503 | 0.00604 | 0.00737 | 0.00921
